From patent US20260226086A1, “COMPOUNDS AND COMPOSITIONS AS STAT3 DEGRADERS AND USES THEREOF” (REGENTS OF THE UNIVERSITY OF MICHIGAN, priority 2023, published 2026) come the findings set out here.

Molecules are shown by their SMILES.

Format in all cases: cell-based
The target of assay [1] is T1, STAT3 (Homo sapiens, UniProt P40763).
T1 construct: This cell line is a clone created by using CRISPR-Cas9 to fuse HiBiT to the 3′ end of STAT3 in HeLa cells; host or cells: STAT3-HiBiT KI HeLa cell line (CRISPR-Cas9 knock-in clone)
The assay can be described thus: HiBiT assay, STAT3 degradation in STAT3-HiBiT KI HeLa cells. The following applies: 24 h; for DC50: read-out: STAT3 Degradation (HeLa 24 h HiBit) DC50. In short, it runs like this:
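HeLa cells with CRISPR knock-in of HiBiT at the STAT3 C-terminus, 20000 cells/well, treated with serial compound dilutions for 24 h at 37 °C, 5% CO2. Remaining STAT3 read by Nano-Glo HiBiT lytic luminescence versus untreated cells; IC50 from four-parameter nonlinear fit of triplicate means.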

Assay [2] deals with SUP-M2 cells. As to the kind of experiment: CellTiter-Glo 2.0 cell viability assay, SUP-M2. The note with it: 4 days. In short, it runs like this:
(§1)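 1000 cells per well exposed to serially diluted compounds for 4 days at 37 °C, 5% CO2. Viability measured by CellTiter-Glo 2.0 luminescence versus untreated cells; IC50 from four-parameter nonlinear fit of triplicate means.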

Assay [3] has as its system SU-DHL-1 cells. As to the kind of experiment: CellTiter-Glo 2.0 cell viability assay, SU-DHL-1. The note with it: Homo sapiens, 96 h, 4 days. The method, boiled down: as §1

T1 sequence (P40763 whole entry): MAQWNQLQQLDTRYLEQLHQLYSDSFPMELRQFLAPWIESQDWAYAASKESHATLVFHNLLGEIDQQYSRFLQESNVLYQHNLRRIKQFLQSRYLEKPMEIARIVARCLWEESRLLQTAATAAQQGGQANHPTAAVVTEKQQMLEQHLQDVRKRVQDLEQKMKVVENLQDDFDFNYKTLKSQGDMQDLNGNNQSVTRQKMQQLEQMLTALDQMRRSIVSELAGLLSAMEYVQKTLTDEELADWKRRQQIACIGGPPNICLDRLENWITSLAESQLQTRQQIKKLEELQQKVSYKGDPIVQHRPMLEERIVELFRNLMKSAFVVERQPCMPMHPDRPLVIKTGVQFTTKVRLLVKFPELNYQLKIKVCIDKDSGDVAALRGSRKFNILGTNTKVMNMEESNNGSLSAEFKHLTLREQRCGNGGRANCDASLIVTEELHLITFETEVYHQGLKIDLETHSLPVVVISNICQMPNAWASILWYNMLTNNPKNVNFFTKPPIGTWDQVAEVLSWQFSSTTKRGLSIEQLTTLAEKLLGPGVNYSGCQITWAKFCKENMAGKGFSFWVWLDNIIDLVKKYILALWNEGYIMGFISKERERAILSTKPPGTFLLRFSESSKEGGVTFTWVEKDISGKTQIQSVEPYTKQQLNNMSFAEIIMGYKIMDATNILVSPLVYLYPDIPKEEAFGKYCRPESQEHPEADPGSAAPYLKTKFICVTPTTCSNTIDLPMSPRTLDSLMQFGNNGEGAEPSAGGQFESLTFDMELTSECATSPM

For the compound `CC(=O)N1CC[C@H]2CC[C@@H](C(=O)N[C@@H](CCC(N)=O)COc3cccc(CCCCN4CCC([C@@H](C(=O)N5C[C@H](O)C[C@H]5C(=O)N[C@@H](C)c5ccc(-c6scnc6C)cc5)n5cc(C6CC6)nn5)CC4)c3Cl)N2C(=O)[C@@H](NC(=O)c2cc3cc(C(=O)P(=O)(O)O)ccc3[nH]2)C1` [Compound 38, (2-(((5S,8S,10aR)-3-acetyl-8-(((S)-5-amino-1-(2-chloro-3-(4-(4-((S)-1-(4-cyclopropyl-1H-1,2,3-triazol-1-yl)-2-((2S,4R)-4-hydroxy-2-(((S)-1-(4-(4-methylthiazol-5-yl)phenyl)ethyl)carbamoyl)pyrrolidin-1-yl)-2-oxoethyl)piperidin-1-yl)butyl)phenoxy)-5-oxopentan-2-yl)carbamoyl)-6-oxodecahydropyrrolo[1,2-a][1,5]diazocin-5-yl)carbamoyl)-1H-indole-5-carbonyl)phosphonic acid], in assay [1], the Dmax at 1 µM was in the range of 60 to 80% and the DC50 lay in the range of 100 to 1000 nM. Also, the concentration for half-maximal inhibition (IC50) in assay [2] (SUP-M2, 96 h) is 10 to 100 nM. The 50% inhibitory concentration (IC50) in assay [3] was greater than 1000 nM.

On to `CC(=O)N1CC[C@H]2CC[C@@H](C(=O)N[C@@H](CCC(N)=O)COc3cccc(CCCCNC(=O)C[C@H](NC(=O)[C@@H]4C[C@@H](O)CN4C(=O)[C@H](C4CCCCC4)n4cc(C5CC5)nn4)c4ccc(-c5scnc5C)cc4)c3Cl)N2C(=O)[C@@H](NC(=O)c2cc3cc(C(=O)P(=O)(O)O)ccc3[nH]2)C1` [Compound 36, (2-(((5S,8S,10aR)-3-acetyl-8-(((S)-5-amino-1-(2-chloro-3-(4-((S)-3-((2S,4R)-1-((S)-2-cyclohexyl-2-(4-cyclopropyl-1H-1,2,3-triazol-1-yl)acetyl)-4-hydroxypyrrolidine-2-carboxamido)-3-(4-(4-methylthiazol-5-yl)phenyl)propanamido)butyl)phenoxy)-5-oxopentan-2-yl)carbamoyl)-6-oxodecahydropyrrolo[1,2-a][1,5]diazocin-5-yl)carbamoyl)-1H-indole-5-carbonyl)phosphonic acid], for which, in assay [1], the Dmax at 1 µM is greater than 80% and the half-maximal degradation concentration (DC50) was less than 10 nM. In assay [2] (SUP-M2, 96 h), this compound yielded an IC50 of less than 10 nM. Also, the IC50 in assay [3] was less than 10 nM.

Turning to `Cc1ncsc1-c1ccc([C@H](C)NC(=O)[C@@H]2C[C@@H](O)CN2C(=O)[C@@H](n2cc(CCCCC(=O)N3CC[C@H]4CC[C@@H](C(=O)N[C@@H](CCC(N)=O)C(=O)NC(c5ccccc5)c5ccccc5)N4C(=O)[C@@H](NC(=O)c4cc5cc(C(=O)P(=O)(O)O)ccc5[nH]4)C3)nn2)C(C)(C)C)cc1` [Compound 13, (2-(((5S,8S,10aR)-8-(((S)-5-amino-1-(benzhydrylamino)-1,5-dioxopentan-2-yl)carbamoyl)-3-(5-(1-((S)-1-((2S,4R)-4-hydroxy-2-(((S)-1-(4-(4-methylthiazol-5-yl)phenyl)ethyl)carbamoyl)pyrrolidin-1-yl)-3,3-dimethyl-1-oxobutan-2-yl)-1H-1,2,3-triazol-4-yl)pentanoyl)-6-oxodecahydropyrrolo[1,2-a][1,5]diazocin-5-yl)carbamoyl)-1H-indole-5-carbonyl)phosphonic acid], in assay [1], the greatest degradation seen (Dmax) at 1 µM was greater than 80% and the DC50 was 10 to 100 nM. In assay [2], this compound showed an IC50 of 10 to 100 nM. Also, in assay [3], the half-inhibitory concentration (IC50) is 100 to 1000 nM.
